Tests used:
5HT2A receptor [1] = target: T1, 5HT2A receptor (Homo sapiens, UniProt P28223); test: PLC/[3H]-IP formation in CHO cells transiently transfected with human 5HT2A cDNA (agonist and antagonist mode); format: cell-based; design: host or cells: CHO-K1 (ATCC CCL-61), transient transfection
5HT2C receptors [2] = target: T2, 5HT2C receptors (Homo sapiens, UniProt P28335); test: PDSP (2005) functional activity of APTs at 5HT2C receptors; format: cell-based; settings: preliminary data
T2 sequence (P28335 33-458): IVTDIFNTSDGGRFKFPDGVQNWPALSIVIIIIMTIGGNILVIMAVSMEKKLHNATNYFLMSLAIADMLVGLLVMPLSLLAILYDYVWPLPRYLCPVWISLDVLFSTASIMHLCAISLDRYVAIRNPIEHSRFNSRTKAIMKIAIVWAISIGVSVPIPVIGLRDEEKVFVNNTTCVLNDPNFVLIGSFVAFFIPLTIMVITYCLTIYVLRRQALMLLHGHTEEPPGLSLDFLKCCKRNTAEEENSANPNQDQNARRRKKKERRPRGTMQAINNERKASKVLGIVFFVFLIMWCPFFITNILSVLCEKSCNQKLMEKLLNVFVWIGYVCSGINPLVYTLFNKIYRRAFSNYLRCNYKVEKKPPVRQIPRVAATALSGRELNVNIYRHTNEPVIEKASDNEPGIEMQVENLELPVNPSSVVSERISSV

5HT2A receptor [3] = target: T1, 5HT2A receptor; test: PDSP (2005) 5HT2A receptor-mediated PLC/[3H]-IP formation; format: cell-based; settings: concentrations to 10 μM; not shown
5HT2C receptors [4] = target: T2, 5HT2C receptors; test: Radioreceptor saturation and competition binding, [3H]-mesulergine labeled 5-HT2C receptor membranes from transfected CHO-K1 cells
[5] = tested on: cocaine self-administration; settings: rat; cited from earlier work
5HT2A receptor [6] = target: T1, 5HT2A receptor; test: Radioreceptor saturation and competition binding, [3H]-ketanserin labeled 5-HT2A receptor membranes from transfected CHO-K1 cells; design: host or cells: CHO-K1 (ATCC CCL-61), transient transfection; settings: saturation binding
[7] = tested on: 5HT2C receptors over 5HT2A receptors; settings: in vitro; cited from earlier work

T1 sequence (P28223 whole entry): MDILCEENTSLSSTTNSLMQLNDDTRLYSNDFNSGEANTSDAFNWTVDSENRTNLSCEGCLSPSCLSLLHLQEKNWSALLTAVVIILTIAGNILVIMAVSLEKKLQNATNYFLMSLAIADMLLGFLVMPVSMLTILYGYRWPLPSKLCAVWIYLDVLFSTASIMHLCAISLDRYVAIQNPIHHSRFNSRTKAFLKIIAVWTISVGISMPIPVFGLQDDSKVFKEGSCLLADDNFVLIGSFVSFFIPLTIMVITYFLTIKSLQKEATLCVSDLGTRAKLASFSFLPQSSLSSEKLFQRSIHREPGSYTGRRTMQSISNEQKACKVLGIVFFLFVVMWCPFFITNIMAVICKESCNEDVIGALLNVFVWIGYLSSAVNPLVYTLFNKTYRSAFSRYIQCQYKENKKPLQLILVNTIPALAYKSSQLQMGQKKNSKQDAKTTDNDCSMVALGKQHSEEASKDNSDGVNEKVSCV

Compound: NCCc1c[nH]c2ccc(O)cc12 [5-HT, 5-hydroxytryptamine]
- 5HT2A PLC/[3H]-IP formation stimulated by agonist (5HT2A receptor [1]; 5-HT 1.0 μM): ~250 % basal control
- maximal PLC/[3H]-IP formation, 5HT2A (5HT2A receptor [1]; at Emax concentration): ~300 % basal control activity

Compound: CN(C)C1CCc2c(cccc2-c2ccccc2)C1 (stereo not shown) [32 (5APT)]
- EC50 (5HT2C receptors [2]): ~80 nM
- Emax at 5HT2C (PDSP) (5HT2C receptors [2]): ~75 % 5HT value
- functional character at 5HT2C (PDSP) (5HT2C receptors [2]): moderate potency partial agonist
- activation of 5HT2A receptor-mediated PLC/[3H]-IP formation (PDSP) (5HT2A receptor [3]): did not activate
- Ki (5HT2C receptors [4]): 320 ± 11 nM

Compound: CN(C)C1CCc2c(cccc2-c2cccc(C(F)(F)F)c2)C1 (stereo not shown) [33 (CF3^−5APT)]
- Ki (5HT2C receptors [4]): ~190 nM

Compound: CN(C)C1CCc2c(cccc2-c2cccc(Cl)c2)C1 (stereo not shown) [35 (Cl-5APT)]
- Ki (5HT2C receptors [4]): ~220 nM

Compound: CN(C)C1CCc2cc(-c3ccccc3)ccc2C1 (stereo not shown) [36 (6APT)]
- Ki (5HT2C receptors [4]): 1800 nM

Compound: CN(C)C1CCc2cc(-c3cccc(C(F)(F)F)c3)ccc2C1 (stereo not shown) [37 (CF3^−6APT)]
- Ki (5HT2C receptors [4]): ~1500 nM

Compound: CN(C)C1CCc2cc(-c3cccc(Br)c3)ccc2C1 (stereo not shown) [40 (Br-6APT)]
- Ki (5HT2C receptors [4]): 540 ± 10 nM

Compound: COc1cccc([C@H](O)C2CCN(CCc3ccc(F)cc3)CC2)c1OC [M100907]
- effect on rate of cocaine self-administration [5]: does not alter responding rate

Compound: Cc1cc2c(cc1Cl)N(C(=O)Nc1ccc(Oc3cccnc3C)nc1)CC2 [SB242084]
- effect on rate of cocaine self-administration [5]: increases the rate of cocaine self-administration dose-dependently

Compound: [3H]C([3H])(N1CCC(C(=O)c2ccc(F)cc2)CC1)C([3H])([3H])n1c(=O)[nH]c2ccccc2c1=O [[^3H]-Ketanserin]
- Bmax of 5HT2A receptors labeled (5HT2A receptor [6]): 1.73±0.11 pmol/mg protein

Compound: C[C@H]1CNCCc2ccc(Cl)cc21 [lorcaserin]
- selectivity for activation of 5HT2C receptors over 5HT2A receptors [7]: 15 fold
